As to `COc1ccc(C(=O)c2ccc(CBr)cc2)cc1`, the melting point (usually the temperature, or range, at which the solid turns liquid) was 76 to 78 °C. To `COc1cc(OC)c2c(=O)[nH]c(-c3ccc(OC4CCN(C(=O)N(C)C)CC4)cc3)nc2c1` belongs 248 to 249 °C; to `COC(=O)C=Cc1ccc(OCCc2nc(-c3ccccc3)oc2C)nc1`, 138 to 139 °C; to `COc1ccc(-c2nc(C#N)c[nH]2)cc1`, 219 to 220 °C.

On to `COc1cc(N)c(Cl)cc1C(=O)NCC1CCN(CCCCCC(=O)c2ccc(C)cc2)CC1`, for which the melting point fell in the range of 130 to 131 °C. For `Nc1cccc(CC(=O)O)c1`, the melting point fell in the range of 116 to 121 °C. The value for `Cc1cccc2c(=O)[nH]c(CCCN(C)C)cc12` was 105 to 106 °C; that for `CCc1nc(-c2ccnnc2)no1` was 73 to 74 °C.

`COC(=O)c1ccc(C(C)(C)NC(C)=O)cc1`: the melting point fell in the range of 165 to 167 °C. The value for `CCCCCCCCCCCCCCC1CC1C(=O)O` (stereo unspecified) was 62 to 64 °C; that for `CCN(CC)C(=O)c1ccc(C(=O)N2CCN(c3ncccc3NC(C)C)CC2)cc1` was 78 to 80 °C. To `CN1C(=O)c2ccccc2OC1(C)COc1ccc(CC2SC(=O)NC2=O)cc1` (stereo unspecified) belongs 58 to 60 °C; to `Cc1nnc(C=Cc2ccccc2OC[C@@H](O)CN2CCC(c3ccc4ccccc4c3)CC2)o1`, 105 to 106 °C; to `c1ccc(-c2nn3c(c2-c2cncc4cccnc24)CCC3)nc1`, 180 to 184 °C. To `CCOC(=O)C(=O)Nc1c([N+](=O)[O-])ccc2ncccc12` belongs 181 °C. `CCC(COS(C)(=O)=O)Nc1ccc(Cl)cc1[N+](=O)[O-]` (stereo unspecified) came in with a melting point of 91 to 93 °C. The value for `CCC(C)(C)Nc1c(-c2ccc(OC)cc2)c(=O)c1=O` was 133 to 135 °C; that for `CCOc1ccc(NC(=O)C(C)(C)O)cc1` was 146 to 148 °C; that for `COc1nc2c(O)cccc2n1C` was 226 to 229 °C. The compound `Cc1nc2ccc(CNS(=O)(=O)c3ccccc3)cc2n1Cc1ccccc1Cl` registered a melting point of 164 to 167 °C. To `N#CN=C(NCc1ccccn1)Nc1cccc(-c2cccc(S(=O)(=O)NC(CC(=O)O)c3ccccc3)c2)c1` (stereo unspecified) belongs 90 °C; to `CC1=C2C(=C(c3ccccc3Cl)N=CC(=O)N2C)NO1`, 136 to 138 °C.

On to `O=C(O)CCc1oc(Sc2ccccn2)nc1-c1ccc(Cl)cc1`, for which the melting point lay in the range of 172 to 173 °C. Take `NS(=O)(=O)c1cc(CC(=O)C=CC(=O)O)ccc1Cl`: the melting point fell in the range of 217 to 218 °C. With `O=S(=O)(Nc1cccc(OCc2cccc(-c3ccccc3)n2)c1)C(F)(F)F`, the melting point lay within 115 to 117 °C. To `CCOC(=O)C(C(=O)C(C)C)C1c2nccnc2C(=O)N1c1ccc2ccc(Cl)nc2n1` (stereo unspecified) belongs 214 °C; to `CSc1c(N)nc(NCCCOC(C)C)nc1Cl`, 245 °C; to `CC1=C(C#N)C(c2cncc3ncc(-c4ccccc4)cc23)C(C(=O)OC(C)C)=C(C)N1` (stereo unspecified), 192 °C. To `O=S(=O)(Nc1ccc(Cl)c(Cl)c1)c1cc(S(=O)(=O)Nc2ccc(Cl)c(Cl)c2)c2cc(O)ccc2c1` belongs 158 to 160 °C; to `COC(=O)C1C2C=CC(C2)C1NC(=O)OCc1ccccc1` (stereo unspecified), 73 to 76 °C. `O=C(CCc1c(O)c2ccccc2oc1=O)c1ccccc1` returned a melting point of 149 to 151 °C. Compound `O=C(c1cccnc1)c1cnc2c(cnn2Cc2ccco2)c1O` gave a melting point of 152 to 153 °C. To `C#CCc1c(C)nc2c(NCc3c(C)cccc3NC(=O)OC)cccn12` belongs 149 to 150 °C; to `O=C1N(C/C=C/c2ccccc2[N+](=O)[O-])CCN1c1ccncc1`, 205 to 206 °C. The compound `Cc1csc2c1c(C(=O)c1ccc(Cl)cc1)cn2C(C)C(=O)O` (stereo unspecified) yielded a melting point of 149 °C. Consider `CC(C)c1ccccc1-n1c(=O)[nH]c2c(C(N)=O)nc(-c3cccc(O)c3)nc21`, for which the melting point was in the range of 322 to 324 °C. To `CCCCCC(=O)CCn1ccnc1` belongs 104 to 106 °C. To `CSc1ccc(OCCO)cc1` belongs 55 to 56.5 °C; to `CCCCS(=O)(=O)Nc1ccccc1OCc1ccc2ccccc2n1`, 93 to 94 °C.

Compound `Clc1ncccc1-c1nc2cccnc2o1` returned a melting point of 140 to 141 °C. As for `COc1ccc(/C=C/c2c(Cl)cncc2Cl)c2cc(-c3ccccn3)oc12`, the melting point was 157 to 158 °C. The value for `COc1ccccc1N1CCN(CCc2ccc3c(c2)oc(=O)n3C)CC1` was 137 to 138 °C; that for `CCOC(=O)c1ccc(OC(=O)c2cccc(C(=O)Oc3ccc(C(=O)OCC)cc3)c2)cc1` was 123 to 125 °C. The value for `CC1=C(c2ccc(C#N)c3ccccc23)CCC1O` (stereo unspecified) was 113 to 114 °C; that for `OCC1NCc2ccsc2-n2cccc21` (stereo unspecified) was 166 °C; that for `CCCCCCSc1nn2c(=O)c(Cl)c(F)nc2s1` was 105 to 111 °C. `CCN(CC)c1ccc(NC(=O)N(C[C@@H]2CCC[C@H](CN(C(=O)Nc3ccc(N(CC)CC)cc3)C3CCCCC3)C2)C2CCCCC2)cc1` gave a melting point of 170 to 172 °C. To `O=[N+]([O-])c1ccc(C2NCCc3c2[nH]c2ccccc32)cc1` (stereo unspecified) belongs 190 °C; to `NC(=O)c1ccccc1NCCC12CCCN1CCC2`, 145 to 147 °C.

On to `CS(=O)(=O)N1C[C@H](S)C[C@H]1CSCc1ccccc1`, for which the melting point was 102 to 104 °C. The value for `NC(=O)c1sc2nccc(N3CCCC(O)C3)c2c1N` (stereo unspecified) was 208 to 211 °C; that for `COC(=O)C=C(CC(=O)OC)NCc1ccccc1` was 67 to 69 °C; that for `Cc1cccc(COc2cccc(OCc3coc(-c4cccc(F)c4)n3)c2)c1C(=O)O` was 152 to 154 °C. To `COc1ccc(-c2ccccc2)c(NC(=N)N2CCOCC2)c1` belongs 140 to 142 °C; to `Cc1nc2ncnn2c2c1CCN2C1CCCCCCC1`, 188 to 190 °C; to `O=C(NCCN1CCC2(CC1)C(=O)NCN2c1ccccc1)c1ccco1`, 196 °C. Consider `COC(=O)/C(=C/C=C/c1cc2cc(Cl)ccc2[nH]1)OC`, for which the melting point was 166 to 168 °C. To `O=C(Nc1nc(-c2ccco2)c(C(=O)C2CCOCC2)s1)c1ccc(Cl)nc1` belongs 233 to 235 °C. Compound `CC(=O)Nc1cc(Oc2ccc3c(C(=O)Nc4ccc(CN5CCNCC5)c(C(F)(F)F)c4)cccc3c2)ncn1` showed a melting point of 194 to 197 °C. The value for `CCc1ccccc1NC=C1C(=O)N(c2ccc(N(S(C)(=O)=O)S(C)(=O)=O)cc2)N=C1C` was 268 °C; that for `O=C1Cc2cccc(C(=O)c3ccc(Cl)cc3)c2N1` was 186 °C; that for `CCCCc1nc2c(N)nc3ccccc3c2n1CCCNS(C)(=O)=O` was 239 to 241 °C. Consider `CCOC(=O)c1c(C)ncn1-c1ccc(Cl)c(Cl)c1`, for which the melting point fell in the range of 135 to 136 °C. The value for `O=C(Oc1cc2ccccc2cn1)c1cc2ccccc2oc1=O` was 160 to 163 °C; that for `NC(=O)C(O)C1CC=CCC1` (stereo unspecified) was 139 to 141 °C. `CS(=O)(=O)c1ccc(-c2cnn(-c3ccc(F)cc3)c(=O)c2C2CCCCC2)cc1` displayed a melting point of 231 to 233 °C.

The record behind these values is a melting point compilation (Tetko et al.; mined from patent text by program, amines drawn as free bases though some values may be those of a salt).
